Assay results from patent publication US20180116990A1, “COMPOSITION OF BIOACTIVE LIPIDS AND METHODS OF USE THEREOF” (UND Life Sciences, LLC, priority 2016, published 2018).
Where two headings read alike, the source gives them in different places.

Tests used:
[1] = tested on: neovascularization; conditions: retina; literature; cited from earlier work
[2] = tested on: experimental animals with DR, AMD, DME, retinopathy of prematurity; test: intravitreal injection in experimental animals with DR, AMD, DME, retinopathy of prematurity (Examples 5-7, FIG. 16); assay type: in vivo; conditions: for regression of DR, AMD, DME, retinopathy of prematurity: all doses
From the text: The degree of DR in control is taken as 100% which received only the vehicle. All bioactive lipids are able to suppress/reverse/arrest DR to a significant degree. […] Similar results were obtained with AMD, DME and retinopathy of prematurity. AVA=Anti-VEGF antibody; LRPM=Lipoxin A4+resolvin+protectin+maresin; AVA+LRPM=Anti-VEGF antibody+Lipoxin A4+resolvin+protectin+maresin.
[…] with DR, AMD, DME, retinopathy of prematurity (each group consisting of 10 animals: total 40 animals) were treated by direct intravitreal injection of LXA4 free acid form of composition according the examples 1-4 in doses ranging from 10.0 μg/day once in a week for 4 weeks.
In another study, this was similar to the study given in Example 5, except that in this instance different bioactive lipids singly and in combination were tested. Thus, in this study, experimental animals received LXA4, resolvin E1, resolvin D1, protectin D1, maresin 1 or a combination of LXA4+resolvin E1+protectin D1+maresin 1 (in the ratio of 1:1:1:1) were given with appropriate control groups. In this study, different doses of bioactive lipids were used either 5 ng, 10 ng, 15 ng, 20 ng, 50 ng, 100 ng, 200 ng, 500 ng, 1 μg, 5 μg or ranging from 10.0 μg to 100.0 μg per week for 4 weeks; once in 4 weeks for 3 months.
(§1) In another study, this was similar to the study given in Examples 5 and 6, except that in this instance different bioactive lipids singly and in combination were tested in combination with or without anti-VEGF antibody. Thus, in this study, experimental animals received LXA4, resolvin E1, resolvin D1, protectin D1, maresin 1 or a combination of LXA4+resolvin E1+protectin D1+maresin 1 (in the ratio of 1:1:1:1)±anti-VEGF antibody were given with appropriate control groups. In this study, dose of bioactive lipids used was 5 ng, 10 ng, 15 ng, 20 ng, 50 ng, 100 ng, 200 ng, 500 ng, 1 μg, 5 μg, or 25.0 μg once in 4 weeks for 3 months. […] A summary of the results obtained with bioactive lipids on angiogenesis (FIG. 10) in vitro; on STZ-induced cytotoxicity to vascular endothelial cells (FIG. 11); on LPS-induced IL-6 and TNF-α secretion by human macrophages in vitro (FIG. 12); on PGE2 and VEGF secretion by LPS stimulated ARPE cells in vitro (FIG. 13); leukocyte migration and adherence to endothelial cells in vitro (FIG. 14); and BDNF secretion by ARPE cells stimulated by LPS (FIG. 15) are given in respective figures.

[3] = tested on: adult human retinal pigment epithelial cells, ARPE 19 cells; test: production of BDNF by ARPE 19 cells exposed to LPS (FIG. 15); assay type: cell-based; conditions: saline control taken as 100%
Experimental: C=Saline control taken as 100%; LPS=LPS-induced decrease in BDNF production; RSv=Resolvin E1; PRt=Protectin D1; MaR=Maresin; L+R+P+M=LXA4=resolvin D1+Protectin D1+Maresin in 1:1:1:1 ratio.
as §1

[4] = tested on: leukocyte migration and adherence; test: leukocyte migration and adherence stimulated by LPS in vitro (FIG. 14); assay type: cell-based; conditions: LPS positive control taken as 100%
Experimental: C=Control; LPS=positive control taken as 100%; RSv=Resolvin E1; PRt=Protectin D1; MaR=Maresin; L+R+P+M=LXA4=resolvin D1+Protectin D1+Maresin in 1:1:1:1 ratio.
as §1

[5] = production of other bioactive lipids (observation)
From the text: Thus, one bioactive lipid enhances the production and action of other bioactive lipids. In a surprise observation, inventor noted that LXA4 and other bioactive lipids function as autocrine factors enhancing their own production.

[6] = tested on: vascular endothelial cells; test: STZ-induced cytotoxic action on vascular endothelial cells in vitro (FIG. 11); assay type: cell-based; conditions: STZ cytotoxicity taken as 100%
Experimental: C=Control; STZ=Streptozotocin-induced cytotoxicity taken as positive control taken as 100%; RSv=Resolvin E1; PRt=Protectin D1; MaR=Maresin; L+R+P+M=LXA4=resolvin D1+Protectin D1+Maresin in 1:1:1:1 ratio.
as §1

[7] = tested on: adult human retinal pigment epithelial cells, ARPE 19 cells; test: production of PGE2 and VEGF by ARPE 19 cells exposed to LPS (FIG. 13); assay type: cell-based; conditions: LPS positive control taken as 100%
Experimental: C=Control; LPS=Positive control taken as 100%; RSv=Resolvin E1; PRt=Protectin D1; MaR=Maresin; L+R+P+M=LXA4=resolvin D1+Protectin D1+Maresin in 1:1:1:1 ratio.
as §1

[8] = tested on: human macrophage cells; test: production of IL-6 and TNF-α by human macrophage cells stimulated with LPS in vitro (FIG. 12); assay type: cell-based; conditions: LPS stimulated increase taken as 100%
Experimental: C=Control; LPS stimulated increase in IL-6 and TNF-α production taken as 100%; RSv=Resolvin E1; PRt=Protectin D1; MaR=Maresin; L+R+P+M=LXA4=resolvin D1+Protectin D1+Maresin in 1:1:1:1 ratio.
as §1

[9] = tested on: VEGF-induced angiogenesis; test: effect of bioactive lipids on angiogenesis induced by VEGF in vitro (FIG. 10); assay type: cell-based; conditions: positive test control taken as 100%
Experimental: C=Control; T=positive test control taken as 100%; RSv=Resolvin E1; PRt=Protectin D1; MaR=Maresin; L+R+P+M=LXA4=resolvin D1+Protectin D1+Maresin in 1:1:1:1 ratio.
as §1

[10] = effect of ethanol and albumin on stability of LXA4 in solution in vitro (Example 8, FIGS. 17-18); assay type: physicochemical
Experimental: C=Control (100%); Concentration of LXA4 used in the test system is 10 μg to which different concentrations of albumin is added and after a specific period of incubation the concentration of LXA4 present in the solution is tested. It is seen that when the % of albumin exceeded 0.01%, the stability of LXA4 is decreased. […] The test system used: LXA4 is dissolved in 0.01% ethanol (pH 7.4) at 37° C. to which different concentrations of albumin is added and at the end of incubation time the concentration of LXA4 present is tested to know whether albumin would influence the stability of LXA4 in the solution.
Concentration of LXA4 tested 100 ng. […] C=Control (100%) (expected). Various doses of albumin were added to LXA4 solution in saline/PBS/ethanol and the stability of LXA4 was tested at the end of different periods of incubation in days. Results were best when ethanol concentration in the solution is between 0.01 to 0.0001% and albumin concentration is between 0.01 to 0.0001%.
The effect of albumin as an exemplary stabilizing agent in compositions of bioactive lipids was tested as follows: To 250 ng of LXA4 dissolved in a solution of saline/PBS with or without 0.01% ethanol was added different concentrations of albumin and after a specific period of incubation the concentration of LXA4 present in the solution was tested.

[11] = tested on: experimental animals with DR, AMD, DME, retinopathy of prematurity; test: intravitreal injection in experimental animals with DR, AMD, DME, retinopathy of prematurity (Examples 5-7, FIG. 16); assay type: in vivo; conditions: Example 5; 5 ng to 100.0 μg per week for 4 weeks; once in 4 weeks for 3 months; all doses tested
[12] = tested on: ARPE 19 cells; conditions: LPS induced ARPE 19 cells, cited from earlier work
[13] = Example 6, lipids singly and in combination, 5 ng to 100.0 μg per week for 4 weeks, once in 4 weeks for 3 months
[14] = Example 7, with or without anti-VEGF antibody, 5 ng to 25.0 μg once in 4 weeks for 3 months

Row | Molecule | protection against neovascularization [1] | regression of DR, AMD, DME, retinopathy of prematurity [2, 13] | regression of DR, AMD, DME, retinopathy of prematurity [2, 14] | production of BDNF [3] | further results
1 | CC/C=C\C[C@H](O)\C=C/C=C/C=C/[C@H](O)C/C=C\C/C=C\CCC(=O)O [Neuroprotectin D1, reference compound] | protected against neovascularization |  |  |  | 
2 | CC[C@@H](O)/C=C/C=C\C[C@@H](O)/C=C/C=C/C=C\[C@@H](O)CCCC(=O)O [Resolvin E1, resolvin E1] | protected against neovascularization | substantial regression | substantial regression | more potent than LXA4 | 
3 | CC/C=C\C/C=C\C[C@H](O)\C=C/C=C/C=C/[C@H](O)C/C=C\CCC(=O)O [Maresin, maresin 1] |  | substantial regression | substantial regression | more potent than LXA4 | 
4 | CC/C=C\C[C@H](O)\C=C/C=C/C=C/[C@H](O)C/C=C\C/C=C\CCC(=O)O [Protectin D1, protectin D1] |  | substantial regression | substantial regression | more potent than LXA4 | 
5 | CC/C=C\C[C@H](O)/C=C/C=C\C=C\C=C\[C@@H](O)[C@@H](O)C/C=C\CCC(=O)O [resolvin D1] | protected against neovascularization | substantial regression | substantial regression |  | 
6 | CCCCC[C@H](O)/C=C/C=C\C=C\C=C\[C@@H](O)[C@@H](O)CCCC(=O)O [LXA4, lipoxin A4] |  | substantial regression | substantial regression |  | leukocyte migration and adherence [4]: most potent; production of other bioactive lipids such as resolvins, protectins and maresins [5]: enhanced; cytoprotective action against STZ-induced cytotoxic action [6]: most effective; production of PGE2 and VEGF [7]: most potent; reduction in the degree of DR, AMD, DME, and retinopathy of prematurity ([2]; Example 5, direct intravitreal injection, 10.0 μg/day once in a week for 4 weeks, all 40 animals): significant reduction; production of IL-6 and TNF-α [8]: most effective; suppression of VEGF-induced angiogenesis [9]: most effective; stability of LXA4 ([10]; Example 8, 250 ng LXA4 in saline/PBS, albumin between 0.01 to 0.0001% compared to LXA4 concentration): optimum; stability of LXA4 ([10]; Example 8, ratio LXA4/albumin 0.01% to 0.0001%, in the presence of 0.01% ethanol): more stable; stability of LXA4 ([10]; FIG. 17, albumin between 0.01% to 0.001%, LXA4 10 μg in 0.01% ethanol, pH 7.4, 37° C.): stable and active; stability of LXA4 ([10]; FIG. 17, albumin exceeded 0.01%, LXA4 10 μg in 0.01% ethanol, pH 7.4, 37° C.): decreased; stability of LXA4 at different times ([10]; FIG. 18, LXA4 100 ng in saline/PBS/ethanol, ethanol 0.01 to 0.0001% and albumin 0.01 to 0.0001%, incubation in days): best; regression of DR, AMD, DME, retinopathy of prematurity [11]: substantial regression; IL-6 levels ([12]; 10 nmol/L, p=0.036): decreased
7 | BDNF: brain-derived neurotropic factor (BDNF), a neurotrophin (protein, UniProt P23560 19-247, looked up) Neurotrophic factor BDNF …: APMKEANIRGQGGLAYPGVRTHGTLESVNGPKAGSRGLTSLADTFEHVIEELLDEDQKVRPNEENNKDADLYTSRVMLSSQVPLEPPLLFLLEEYKNYLDAANMSMRVRRHSDPARRGELSVCDSISEWVTAADKKTAVDMSGGTVTVLEKVPVSKGQLKQYFYETKCNPMGYTKEGCRGIDKRHWNSQCRTTQSYVRALTMDSKKRIGWRFIRIDTSCVCTLTIKRGR |  |  |  |  | IL-6 levels ([12]; 500 pg, p=0.0002): decreased
